The experiment concerns the target T1, factor D (Homo sapiens, UniProt P00746).
T1 construct: made in house; host or cells: E. coli
The experiment is described as follows: factor D inhibition assay of Biological Example 2. The experiment is classed as biochemical.
T1 sequence (P00746 26-253): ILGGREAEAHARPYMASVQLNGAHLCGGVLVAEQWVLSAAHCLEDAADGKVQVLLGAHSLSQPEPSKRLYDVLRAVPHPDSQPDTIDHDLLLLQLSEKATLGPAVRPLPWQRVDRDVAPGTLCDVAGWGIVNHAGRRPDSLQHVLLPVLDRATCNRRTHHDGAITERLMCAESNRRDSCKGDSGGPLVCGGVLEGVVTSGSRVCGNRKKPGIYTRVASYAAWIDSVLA
A word on the IC50: it is the concentration needed to halve the response being measured. Higher therefore signals lower potency. The molecule `CCOCc1cc(COc2ccccc2CC(=O)O)cc(-c2cccc([C@@H](C)N)c2F)c1` [Example 120-Q] returned a 50% inhibitory concentration (IC50) of 17 nM. In the case of `CCOCc1cc(COc2ccccc2CC(=O)O)cc(-c2cccc([C@@H](C)N)c2)c1` [Example 120-R] it was 50 nM; in that of `C[C@@H](N)c1cccc(-c2cc(COc3ccccc3CC(=O)O)cc(COC3CCOc4ccc(Cl)cc43)c2)c1F` (some centres unmarked) [Example 120-S], 21 nM. For `C[C@@H](N)c1cccc(-c2cc(COc3ccccc3CC(=O)O)cc(COC3CCOc4ccc(Cl)cc43)c2)c1` (some centres unmarked) [Example 120-T] the value was 8 nM; for `C[C@@H](N)c1cccc(-c2cc(Br)cc(COc3ccccc3CC(=O)O)c2)c1F` [Example 120-U], 12 nM. For `COCCc1cc(COc2ccccc2CC(=O)O)cc(-c2cccc([C@@H](C)N)c2F)c1` [Example 120-V] the value was 9 nM; for `COCCc1cc(COc2ccccc2CC(=O)O)cc(-c2cccc([C@@H](C)N)c2)c1` [Example 120-W], 13 nM; for `C[C@@H](N)c1cccc(-c2cc(COc3ccccc3CC(=O)O)cc(COC(F)F)c2)c1F` [Example 120-X], 4 nM. In turn, `N[C@H](CO)c1cccc(-c2cc(COc3ccccc3CC(=O)O)ccc2F)c1` [Example 122, (S)-2-(2-((3′-(1-Amino-2-hydroxyethyl)-6-fluoro-[1,1′-biphenyl]-3-yl)methoxy)phenyl)acetic acid] came in with a half-inhibitory concentration (IC50) of 15 nM.

Regarding `N[C@H](CO)c1cccc(-c2cccc(COc3ccccc3CC(=O)O)c2F)c1` [Example 123, (S)-2-(2-((3′-(1-Amino-2-hydroxyethyl)-2-fluoro-[1,1′-biphenyl]-3-yl)methoxy)phenyl)acetic acid], half-maximal inhibition (IC50) was put at 312 nM. For `C[C@@H](N)c1cccc(-c2cc(COc3ccccc3CC(=O)O)ccc2F)c1` [Example 124, (R)-2-(2-((3′-(1-Aminoethyl)-6-fluoro-[1,1′-biphenyl]-3-yl)methoxy)phenyl)acetic acid] the value was 99 nM. For `C[C@@H](N)c1cccc(-c2cccc(COc3ccccc3CC(=O)O)c2F)c1` [Example 125, (R)-2-(2-((3′-(1-Aminoethyl)-2-fluoro-[1,1′-biphenyl]-3-yl)methoxy)phenyl)acetic acid] the value was 4450 nM; for `NCc1cccc(-c2cc(COc3ccccc3CC(=O)O)cc3c2OCO3)c1` [Example 126-B, 2-(2-((7-(3-(Aminomethyl)phenyl)benzo[d][1,3]dioxol-5-yl)methoxy)phenyl)acetic acid], 3 nM. In the case of `COc1ccc(COc2ccccc2CC(=O)O)cc1-c1cccc([C@H](N)CO)c1` [Example 127-B, (S)-2-(2-((3′-(1-Amino-2-hydroxyethyl)-6-methoxy-[1,1′-biphenyl]-3-yl)methoxy)phenyl)acetic acid] it was 62 nM; in that of `N[C@H](CO)c1cccc(-c2cc(COc3ccccc3CC(=O)O)cc(NCC3CC3)c2)c1` [Example 128-C, (S)-2-(2-((3′-(1-Amino-2-hydroxyethyl)-5-((cyclopropylmethyl)amino)-[1,1′-biphenyl]-3-yl)methoxy)phenyl)acetic acid], 3 nM. For `CCNc1cc(COc2ccccc2CC(=O)O)cc(-c2cccc([C@H](N)CO)c2)c1` [Example 129, (S)-2-(2-((3′-(1-Amino-2-hydroxyethyl)-5-(ethylamino)-[1,1′-biphenyl]-3-yl)methoxy)phenyl)acetic acid], the midpoint of inhibition, the IC50, lay at 9 nM. This IC50 is about 3-fold higher than that of the molecule before. In the case of `CNc1cc(COc2ccccc2CC(=O)O)cc(-c2cccc([C@H](N)CO)c2)c1` [Example 131, (S)-2-(2-((3′-(1-Amino-2-hydroxyethyl)-5-(methylamino)-[1,1′-biphenyl]-3-yl)methoxy)phenyl)acetic acid] it was 18 nM. In the case of `CN(C)c1cc(COc2ccccc2CC(=O)O)cc(-c2cccc([C@H](N)CO)c2)c1` [Example 132, (S)-2-(2-((3′-(1-Amino-2-hydroxyethyl)-5-(dimethylamino)-[1,1′-biphenyl]-3-yl)methoxy)phenyl)acetic acid] it was 18 nM; in that of `Nc1cc(COc2ccccc2CC(=O)O)cc(-c2cccc([C@H](N)CO)c2)c1` [Example 133, (S)-2-(2-((5-amino-3′-(1-amino-2-hydroxyethyl)-[1,1′-biphenyl]-3-yl)methoxy)phenyl)acetic acid], 9 nM. For `COc1cc(COc2ccccc2CC(=O)O)cc(-c2cccc(CN)c2)c1` [Example 134, 2-(2-((3′-(Aminomethyl)-5-methoxy-[1,1′-biphenyl]-3-yl)methoxy)phenyl)acetic acid] the value was 13 nM. As for `NCc1cccc(-c2cc(COc3ccccc3CC(=O)O)cc(OC[C@H]3CCCO3)c2)c1` [Example 135, (R)-2-(2-((3′-(Aminomethyl)-5-((tetrahydrofuran-2-yl)methoxy)-[1,1′-biphenyl]-3-yl)methoxy)phenyl)acetic acid], the midpoint of inhibition, the IC50, lay at 5 nM. Turning to `NCc1cccc(-c2cc(COc3ccccc3CC(=O)O)cc(OCC3CC3)c2)c1` [Example 136, 2-(2-((3′-(Aminomethyl)-5-(cyclopropylmethoxy)-[1,1′-biphenyl]-3-yl)methoxy)phenyl)acetic acid], the half-maximal inhibitory concentration (IC50) is 5 nM. For `NCc1cccc(-c2cc(COc3ccccc3CC(=O)O)ccc2F)c1F` [Example 137, 2-(2-((3′-(Aminomethyl)-2′,6-difluoro-[1,1′-biphenyl]-3-yl)methoxy)phenyl)acetic acid] the value was 21 nM; for `NCc1cc(-c2cc(COc3ccccc3CC(=O)O)cc(OC[C@H]3CCCO3)c2)ccn1` [Example 138-A], 2 nM. For `NCc1ccnc(-c2cc(COc3ccccc3CC(=O)O)cc(OC[C@H]3CCCO3)c2)c1` [Example 138-B] the value was 88 nM; for `NCc1cncc(-c2cc(COc3ccccc3CC(=O)O)cc(OC[C@H]3CCCO3)c2)c1` [Example 138-C], 1520 nM; for `NCc1cc(-c2cccc(COc3ccccc3CC(=O)O)c2)ccc1F` [Example 138-D], 223 nM. For `NCc1ccc(F)c(-c2cccc(COc3ccccc3CC(=O)O)c2)c1` [Example 138-E] the value was 1990 nM; for `O=C(O)Cc1ccccc1OCc1cccc(-c2cccc(-c3ncc[nH]3)c2)c1` [Example 138-F], 2190 nM; for `NCc1cc(-c2cccc(COc3ccccc3CC(=O)O)c2)ccn1` [Example 138-G], 12 nM. `NCc1cccc(-c2cccc(COc3ccccc3CC(=O)O)c2)c1F` [Example 138-H] had an IC50 of 5 nM. For `C[C@@H](N)c1cccc(-c2cccc(COc3ccccc3CC(=O)O)c2)n1` [Example 138-I] the value was 301 nM. For `O=C(O)Cc1ccccc1OCc1cccc(-c2cccc(C3CCCN3)c2)c1` (centres unmarked) [Example 138-J] the value was 2870 nM; for `N[C@H](CO)c1cccc(-c2cccc(COc3ccccc3CC(=O)O)c2)n1` [Example 138-K], 45 nM; for `C[C@@H](N)c1cccc(-c2cccc(COc3ccccc3CC(=O)O)c2)c1F` [Example 138-L], 99 nM. In the case of `NCc1cccc(-c2cc(COc3ccccc3CC(=O)O)cc(OC[C@H]3CCCO3)c2)n1` [Example 138-M] it was 5 nM.

Consider `NCc1cccc(-c2cccc(COc3ccccc3CC(=O)O)c2)n1` [Example 138-N], for which the IC50 worked out at 28 nM. Compared with the last molecule, the IC50 is about 5.6-fold higher. Take `NCc1cccc(-c2cc(COc3ccccc3CC(=O)O)cc(NCC3CC3)c2)c1` [Example 139, 2-(2-((3′-(Aminomethyl)-5-((cyclopropylmethyl)amino)-[1,1′-biphenyl]-3-yl)methoxy)phenyl)acetic acid]: inhibition was half-maximal at 22 nM (IC50).

The molecule `NCc1cccc(-c2cc(COc3ccccc3CC(=O)O)cc(NC[C@@H]3CCCO3)c2)c1` [Example 140, (S)-2-(2-((3′-(Aminomethyl)-5-(((tetrahydrofuran-2-yl)methyl)amino)-[1,1′-biphenyl]-3-yl)methoxy)phenyl)acetic acid] displayed a 50% inhibitory concentration (IC50) of 3 nM. In the case of `N[C@H](CO)c1cccc(-c2cccc(COc3ccccc3CC(=O)O)c2)c1Cl` [Example 141-B, (S)-2-(2-((3′-(1-Amino-2-hydroxyethyl)-2′-chloro-[1,1′-biphenyl]-3-yl)methoxy)phenyl)acetic acid] it was 14 nM; in that of `C[C@@H](N)c1cccc(-c2cccc(COc3ccccc3CC(=O)O)c2)c1Cl` [Example 142-A], 346 nM; in that of `NCc1cccc(-c2cccc(COc3ccccc3CC(=O)O)c2)c1Cl` [Example 142-B], 77 nM. For `Cc1c(-c2cccc(COc3ccccc3CC(=O)O)c2)cccc1[C@H](N)CO` [Example 142-C] the value was 49600 nM.

`C[C@@H](N)c1cc(-c2cccc(COc3ccccc3CC(=O)O)c2)ccn1` [Example 142-D] came in with a half-inhibitory concentration (IC50) of 346 nM. Compared with the last molecule, the IC50 is about 140-fold lower.

Molecule `N[C@H](CO)c1cccc(-c2cccc(COc3ccccc3CC(=O)O)c2)c1F` [Example 142-E] yielded a 50% inhibitory concentration (IC50) of 8 nM.

On to `C[C@@](N)(CO)c1cccc(-c2cccc(COc3ccccc3CC(=O)O)c2)c1` [Example 142-F], for which the IC50 came to 260 nM. This IC50 is about 32-fold higher than that of the molecule before. `N[C@H](CO)c1cc(-c2cccc(COc3ccccc3CC(=O)O)c2)ccn1` [Example 142-G] displayed an IC50 of 12 nM. For `C[C@H](N)c1cccc(-c2cccc(COc3ccccc3CC(=O)O)c2)c1F` [Example 142-H] the value was 22 nM. For `NCc1nccc(-c2cccc(COc3ccccc3CC(=O)O)c2)c1F` [Example 142-I] the value was 2 nM; for `NCc1nccc(-c2cccc(COc3ccccc3CC(=O)O)c2)n1` [Example 142-J], 67 nM.

With `Cc1c(CN)cccc1-c1cccc(COc2ccccc2CC(=O)O)c1` [Example 143-C, 2-(2-((3′-(Aminomethyl)-2′-methyl-[1,1′-biphenyl]-3-yl)methoxy)phenyl)acetic acid], it took 132 nM to reach half-maximal inhibition (IC50). For `NCc1cccc(-c2cccc(COc3ccccc3CC(=O)O)c2)c1O` [Example 144-C, 2-(2-((3′-(Aminomethyl)-2′-hydroxy-[1,1′-biphenyl]-3-yl)methoxy)phenyl)acetic acid] the value was 56 nM; for `NC(=O)Cc1ccccc1OCc1cccc(-c2cccc([C@H](N)CO)c2)c1` [Example 146-C, (S)-2-(2-((3′-(1-Amino-2-hydroxyethyl)-[1,1′-biphenyl]-3-yl)methoxy)phenyl)acetamide], 18400 nM.

For the origin of these results see patent US20160145247A1, “Aminomethyl-Biaryl Derivatives Complement Factor D inhibitors and uses thereof” (NOVARTIS AG, priority 2013, published 2016).
